From patent US4698327A, “Novel glycopeptide derivatives” (priority 1986, dated 1987) come the findings set out here.

Assay [1] has as its system Staphylococcus aureus V41. Put plainly: MIC, standard agar-dilution assay. The format is cell-based.
Assay [2] concerns Staphylococcus aureus X400. In words: MIC, standard agar-dilution assay. It is filed as cell-based.
The subject of assay [3] is Staphylococcus aureus S13E. The format is cell-based. Particulars: agar dilution.
Assay [4] has as its system Staphylococcus epidermidis EPI1. It is filed as cell-based. As to conditions: agar dilution.
For assay [5], the system named is Staphylococcus epidermidis 222. Put plainly: MIC, standard agar-dilution assay. The format is cell-based.
Assay [6] concerns Streptococcus pyogenes C203. Put plainly: MIC, standard agar-dilution assay. It is filed as cell-based.
Assay [7] relates to Streptococcus pneumoniae Park 1. The format is cell-based. Particulars: agar dilution.
Assay [8] concerns Streptococcus faecium ATCC 9790. In words: MIC, standard agar-dilution assay. The format is cell-based.
The test system of assay [9] is Streptococcus sp. group D 2041. Put plainly: MIC, standard agar-dilution assay. It is filed as cell-based.
The subject of assay [10] is Haemophilus influenzae C.L. In words: MIC, standard agar-dilution assay. The format is cell-based.
Assay [11] deals with Haemophilus influenzae 76. In words: MIC, standard agar-dilution assay. The format is cell-based.
A further assay has as its system Escherichia coli N10. In words: MIC, standard agar-dilution assay. It is filed as cell-based.
The subject of a further assay is Escherichia coli EC14. In words: MIC, standard agar-dilution assay. The format is cell-based.
A further assay deals with Escherichia coli TEM. In words: MIC, standard agar-dilution assay. It is filed as cell-based.
For assay [12], the system named is Klebsiella pneumoniae X26. Put plainly: MIC, standard agar-dilution assay. It is filed as cell-based.
In assay [13] the test system is Klebsiella pneumoniae X68. In words: MIC, standard agar-dilution assay. The format is cell-based.
Assay [14] deals with Klebsiella pneumoniae KAE. In words: MIC, standard agar-dilution assay. The format is cell-based.
Assay [15] deals with Staphylococcus aureus NRRL B313. As to conditions: agar dilution.

≈ marks a conversion by molar mass, not a printed value. Some results are limits rather than exact numbers.

On to `CCCNC1(C)CC(OC2C(Oc3c4cc5cc3Oc3ccc(cc3Cl)C(O)C(NC(=O)C(CC(C)C)N(C)CCC)C(=O)NC(CC(N)=O)C(=O)NC5C(=O)NC3C(=O)NC(C(=O)NC(C(=O)O)c5cc(O)cc(O)c5-c5cc3ccc5O)C(O)c3ccc(c(Cl)c3)O4)OC(CO)C(O)C2O)OC(C)C1O` (stereo not drawn) [Compound 22, N^van, N^leu --di(n-propyl)vancomycin], for which the MIC in assay [1] came out at 2 µg/mL (≈ 1.3 µM); in assay [2] it was 2 µg/mL (≈ 1.3 µM); in assay [3], 2 µg/mL (≈ 1.3 µM); in assay [4], 4 µg/mL (≈ 2.61 µM); in [5], 4 µg/mL (≈ 2.61 µM); in [6], 2 µg/mL (≈ 1.3 µM). In addition, the MIC in [7] was 1 µg/mL (≈ 0.652 µM); in assay [8], 2 µg/mL (≈ 1.3 µM); in assay [9], 8 µg/mL (≈ 5.22 µM); in assay [10], greater than 128 µg/mL; in assay [11] it was 128 µg/mL (≈ 83.5 µM); with Escherichia coli N10, greater than 128 µg/mL. For the same molecule, the MIC with Escherichia coli EC14 is greater than 128 µg/mL; against Escherichia coli TEM, greater than 128 µg/mL; in [12], greater than 128 µg/mL; in assay [13] it was greater than 128 µg/mL; in assay [14], greater than 128 µg/mL; in assay [15] it was 2 µg/mL (≈ 1.3 µM).

Turning to `CCCCCCCNC1(C)CC(OC2C(Oc3c4cc5cc3Oc3ccc(cc3Cl)C(O)C3NC(=O)C(NC(=O)C5NC(=O)C(CC(N)=O)NC(=O)C(NC(=O)C(CC(C)C)NC)C(O)c5ccc(c(Cl)c5)O4)c4ccc(O)c(c4)-c4c(O)cc(O)cc4C(C(=O)O)NC3=O)OC(CO)C(O)C2O)OC(C)C1O` (stereo not drawn) [Compound 10, N^van --(n-heptyl)vancomycin], the MIC in assay [1] came to 0.5 µg/mL (≈ 0.323 µM); in assay [2], 0.5 µg/mL (≈ 0.323 µM); in assay [3] it was 0.5 µg/mL (≈ 0.323 µM); in [4], 2 µg/mL (≈ 1.29 µM); in assay [5], 1 µg/mL (≈ 0.646 µM); in assay [6], 0.5 µg/mL (≈ 0.323 µM). In addition, the MIC in assay [7] was 0.125 µg/mL (≈ 0.0808 µM); in assay [8], 0.5 µg/mL (≈ 0.323 µM); in [9], 1 µg/mL (≈ 0.646 µM); in assay [10] it was 128 µg/mL (≈ 82.7 µM); in assay [11], 128 µg/mL (≈ 82.7 µM); against Escherichia coli N10, greater than 128 µg/mL. For the same molecule, the MIC is greater than 128 µg/mL in the assay with Escherichia coli EC14; greater than 128 µg/mL in the assay on Escherichia coli TEM; greater than 128 µg/mL in assay [12]; greater than 128 µg/mL in [13]; greater than 128 µg/mL in [14]; 0.25 µg/mL (≈ 0.162 µM) in assay [15].

Turning to `CCNC1(C)CC(OC2C(Oc3c4cc5cc3Oc3ccc(cc3Cl)C(O)C(NC(=O)C(CC(C)C)N(C)CC)C(=O)NC(CC(N)=O)C(=O)NC5C(=O)NC3C(=O)NC(C(=O)NC(C(=O)O)c5cc(O)cc(O)c5-c5cc3ccc5O)C(O)c3ccc(c(Cl)c3)O4)OC(CO)C(O)C2O)OC(C)C1O` (stereo not drawn) [Compound 24, N^van, N^leu --diethylvancomycin], the MIC in assay [1] was found to be 1 µg/mL (≈ 0.664 µM); in assay [2] it was 2 µg/mL (≈ 1.33 µM); in [3] it was 1 µg/mL (≈ 0.664 µM); in assay [4], 2 µg/mL (≈ 1.33 µM); in assay [5], 2 µg/mL (≈ 1.33 µM); in assay [6], 1 µg/mL (≈ 0.664 µM). The MIC in [7] was 1 µg/mL (≈ 0.664 µM); in assay [8], 2 µg/mL (≈ 1.33 µM); in [9], 4 µg/mL (≈ 2.66 µM); in [10] it was less than 128 µg/mL; in assay [11] it was 128 µg/mL (≈ 85 µM); against Escherichia coli N10 it was greater than 128 µg/mL. The MIC against Escherichia coli EC14 is greater than 128 µg/mL; with Escherichia coli TEM, greater than 128 µg/mL; in [12] it was greater than 128 µg/mL; in [13] it was greater than 128 µg/mL; in assay [14] it was greater than 128 µg/mL; in assay [15] it was 1 µg/mL (≈ 0.664 µM).

On to `CCCCNC1(C)CC(OC2C(Oc3c4cc5cc3Oc3ccc(cc3Cl)C(O)C(NC(=O)C(CC(C)C)N(C)CCCC)C(=O)NC(CC(N)=O)C(=O)NC5C(=O)NC3C(=O)NC(C(=O)NC(C(=O)O)c5cc(O)cc(O)c5-c5cc3ccc5O)C(O)c3ccc(c(Cl)c3)O4)OC(CO)C(O)C2O)OC(C)C1O` (stereo not drawn) [Compound 19, N^van, N^leu --di(n-butyl)vancomycin], for which the MIC in assay [1] is 1 µg/mL (≈ 0.64 µM); in assay [2] it was 1 µg/mL (≈ 0.64 µM); in assay [3], 1 µg/mL (≈ 0.64 µM); in [4], 2 µg/mL (≈ 1.28 µM); in assay [5], 1 µg/mL (≈ 0.64 µM); in [6], 0.5 µg/mL (≈ 0.32 µM). In addition, the MIC in assay [7] was 0.5 µg/mL (≈ 0.32 µM); in assay [8] it was 1 µg/mL (≈ 0.64 µM); in [9] it was 2 µg/mL (≈ 1.28 µM); in assay [10] it was greater than 128 µg/mL; in assay [11], 128 µg/mL (≈ 82 µM); with Escherichia coli N10, greater than 128 µg/mL. The MIC was greater than 128 µg/mL with Escherichia coli EC14; greater than 128 µg/mL against Escherichia coli TEM; greater than 128 µg/mL in assay [12]; greater than 128 µg/mL in assay [13]; greater than 128 µg/mL in assay [14]; 0.5 µg/mL (≈ 0.32 µM) in [15].

Take `CCCNC1(C)CC(OC2C(Oc3c4cc5cc3Oc3ccc(cc3Cl)C(O)C3NC(=O)C(NC(=O)C5NC(=O)C(CC(N)=O)NC(=O)C(NC(=O)C(CC(C)C)NC)C(O)c5ccc(c(Cl)c5)O4)c4ccc(O)c(c4)-c4c(O)cc(O)cc4C(C(=O)O)NC3=O)OC(CO)C(O)C2O)OC(C)C1O` (stereo not drawn) [Compound 20, N^van --(n-propyl)vancomycin]: the MIC was determined as 1 µg/mL (≈ 0.671 µM) in assay [1]; 1 µg/mL (≈ 0.671 µM) in assay [2]; 1 µg/mL (≈ 0.671 µM) in assay [3]; 4 µg/mL (≈ 2.68 µM) in [4]; 1 µg/mL (≈ 0.671 µM) in assay [5]; 0.5 µg/mL (≈ 0.335 µM) in [6]. Besides, the MIC in assay [7] is 0.5 µg/mL (≈ 0.335 µM); in [8] it was 1 µg/mL (≈ 0.671 µM); in assay [9], 1 µg/mL (≈ 0.671 µM); in [10] it was 128 µg/mL (≈ 85.8 µM); in [11] it was 128 µg/mL (≈ 85.8 µM); with Escherichia coli N10, greater than 128 µg/mL. The MIC against Escherichia coli EC14 is greater than 128 µg/mL; with Escherichia coli TEM, greater than 128 µg/mL; in assay [12] it was greater than 128 µg/mL; in assay [13] it was greater than 128 µg/mL; in [14], greater than 128 µg/mL; in assay [15] it was 1 µg/mL (≈ 0.671 µM).
